Measured values from US8410273B2, “Cyclic compound having substituted phenyl group” (Daiichi Sankyo Company, Limited, priority 2009, dated 2013).

System: female F344 rats
Test: Effect on bone density (femur, DXA) after oophorectomy or sham surgery
Assay type: in vivo
Conditions: at 3 mg/kg or less, orally once a day, six days a week, six weeks
Protocol: Eight to 12 week old female F344 rats were purchased from Charles River Laboratories and used in the following experiment. Rats were anesthetized with an intraperitoneal administration of 40 mg/kg of Somnopentyl (Kyoritsu Seiyaku Corporation), and then oophorectomy or sham surgery was performed. From the day after surgery, a suspension of the test compound in a 0.5% methyl cellulose solution (Wako Pure Chemical Industries, Ltd. Cat. No. 133-14255) was orally administered once a day, six days a week. Six weeks after administration, the rats were euthanized by removal of whole blood from the lower abdominal aorta under Somnopentyl anesthesia, and the left and right femur was excised.
After removal of soft tissues, the bone density of the femur thus excised was measured by a DXA apparatus, DCS-600R (Aloka Co., Ltd.). The bone density was assessed in the whole femur as well as in three equal sections of the whole femur, namely the proximal end, the shaft, and the distal end.

For `Cn1ccc2cc(-c3cncc4ccc(C(N)=O)cc34)ccc21` [Example 33], which “bone density of the femur” value is on record?
Its value is “significantly increased the bone density”.

How did the “bone density of the femur” value turn out when `NC(=O)c1ccc2cncc(-c3ccc(Cl)cc3)c2c1` [Example 118] was run?
Its value is “significantly increased the bone density”.

With `NC(=O)c1ccc2cncc(-c3ccc(OCCOC4CCOCC4)cc3)c2n1` [Example 9, 8-{4-[2-(Tetrahydro-2H-pyran-4-yloxy)ethoxy]phenyl}-1,6-naphthyridine-2-carboxamide] as the molecule, how does the “bone density of the femur” value read?
Its value is “significantly increased the bone density”.

How did the “bone density of the femur” value turn out when `NC(=O)c1ccc2cncc(-c3ccc(OCCO)cc3)c2c1` [Example 36] was run?
Its value is “significantly increased the bone density”.
